The text below walks through data of US10954214B2 (Janssen Pharmaceutica NV, priority 2016, dated 2021).

Bounds are passed on as bounds.

Assay [1] relates to IL10 secretion by OCI-LY3 ABC-DLBCL cells. As to the kind of experiment: Human IL10 Mesoscale assay (OCI-LY3). Format: cell-based. The note with it: Homo sapiens, 24 h. As to the method: (§1) NFKB signaling regulates the secretion of multiple cytokines, including IL6 and IL10. Secretion of the cytokines IL6 and IL10 by TMD8 or OCI-LY3 ABC-DLBCL cells was measured using a mesoscale assay. Inhibition of NFKB signaling by MALT1 or BTK inhibitors results in a decrease of IL6/10 secretion.
(§2) TMD8 or OCI-LY3 cells were propagated in RPMI-1640 (Sigma Aldrich) supplemented with 10% fetal bovine serum (HyClone), 1 mM sodium pyruvate (Invitrogen), 2 mM L-glutamine (Sigma Aldrich) and 1% PenStrep (Sigma Aldrich). Cell passage number should not exceed 30. Cells should be kept between 0.5-2.5 million cells per mL during culturing and cells should be supplemented every 2-3 days with fresh 50 μM beta-mercaptoenthanol. No beta-mercaptoethanol was used during the mesoscale assay.
(§3) For the Mesoscale assay, 100,000 TMD8 or OCI-LY3 cells were seeded per well into black-colored 96-well plates with clear bottom (Corning #3904) and test compounds were added in 9 dilution steps (1:2) ranging from 15 μM to 58.6 nM (final DMSO concentration 0.3%). DMSO control wells were used to determine the maximum signal (High Control (HC)). Treatment with the BTK inhibitor RN486 in a dose range from 30 nM to 131 pM (9 dilutions of 1:2) served as a positive control for NFKB pathway inhibition and was used to determine the maximum inhibition (Low Control (LC)). Compounds and cells were incubated for 24 h at 37° C. and 5% CO2 (assay volume is 150 μL). After 24 h of incubation 50 μL of the supernatant was transferred to a MSD plate (V-Plex Proinflammation Panel 1 (human) kit, Mesoscale (MSD)) and incubated for 2 h with vigorous shaking (600 rpm) at room temperature. Following incubation, plates were washed 3× with PBS+0.05% Tween-20 and 25 μL detection antibody solution (IL6 & IL10 antibodies in diluent 3 (MSD)) was added per well followed by 2 h of incubation with vigorous shaking (600 rpm) at room temperature. After 3× washes with PBS+0.05% Tween-20, plates were incubated with 150 μL 2× Read Buffer T and read on SECTOR imager.

Assay [2] deals with full-length MALT1 protein (Strep-MALT1(1-824)-His) (Homo sapiens (Human), UniProt Q9UDY8). The experiment in a line: MALT1 Biochemical Protease Assay (Ac-LRSR-AMC substrate). The settings on record: 10 nM FL MALT1, 200 μM Ac-LRSR-AMC, 4 h at RT; read-out: MALT1_Biochemical activity (Ac-LRSR-amc) IC50. The gist of the method:
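Full-length MALT1 pre-incubated with compounds (30 μM to 0.5 nM, 11 threefold steps) for 50 min at RT. After Ac-LRSR-AMC was added, the reaction ran 4 h at RT and AMC fluorescence was read. IC50 and Hill slope from curve fitting against no-enzyme and no-compound controls.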

Assay [3] concerns IL6 secretion by OCI-LY3 ABC-DLBCL cells. As to the kind of experiment: Human IL6 Mesoscale assay (OCI-LY3). Type of assay: cell-based. The settings on record: Homo sapiens, 24 h. As to the method: as §1, §2, §3
The test system of assay [4] is IL10 secretion by TMD8 ABC-DLBCL cells. As to the kind of experiment: Human IL10 Mesoscale assay (TMD-8). Type of assay: cell-based. The note with it: TMD-8 cells, 24 h. The gist of the method: (§4)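 100,000 cells/well treated with compound in 9 twofold steps from 15 μM to 58.6 nM (0.3% DMSO) for 24 h at 37° C; supernatant cytokine measured by MSD electrochemiluminescence sandwich immunoassay. DMSO wells set maximum signal, BTK inhibitor RN486 (30 nM to 131 pM) set maximum inhibition.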

Assay [5] has as its system IL6 secretion by TMD8 ABC-DLBCL cells. The experiment in a line: Human IL6 Mesoscale assay (TMD-8). Format: cell-based. The settings on record: TMD-8 cells, 24 h. A digest of the protocol:
as §4

Chain of full-length MALT1 protein (Strep-MALT1(1-824)-His) (Q9UDY8 whole entry): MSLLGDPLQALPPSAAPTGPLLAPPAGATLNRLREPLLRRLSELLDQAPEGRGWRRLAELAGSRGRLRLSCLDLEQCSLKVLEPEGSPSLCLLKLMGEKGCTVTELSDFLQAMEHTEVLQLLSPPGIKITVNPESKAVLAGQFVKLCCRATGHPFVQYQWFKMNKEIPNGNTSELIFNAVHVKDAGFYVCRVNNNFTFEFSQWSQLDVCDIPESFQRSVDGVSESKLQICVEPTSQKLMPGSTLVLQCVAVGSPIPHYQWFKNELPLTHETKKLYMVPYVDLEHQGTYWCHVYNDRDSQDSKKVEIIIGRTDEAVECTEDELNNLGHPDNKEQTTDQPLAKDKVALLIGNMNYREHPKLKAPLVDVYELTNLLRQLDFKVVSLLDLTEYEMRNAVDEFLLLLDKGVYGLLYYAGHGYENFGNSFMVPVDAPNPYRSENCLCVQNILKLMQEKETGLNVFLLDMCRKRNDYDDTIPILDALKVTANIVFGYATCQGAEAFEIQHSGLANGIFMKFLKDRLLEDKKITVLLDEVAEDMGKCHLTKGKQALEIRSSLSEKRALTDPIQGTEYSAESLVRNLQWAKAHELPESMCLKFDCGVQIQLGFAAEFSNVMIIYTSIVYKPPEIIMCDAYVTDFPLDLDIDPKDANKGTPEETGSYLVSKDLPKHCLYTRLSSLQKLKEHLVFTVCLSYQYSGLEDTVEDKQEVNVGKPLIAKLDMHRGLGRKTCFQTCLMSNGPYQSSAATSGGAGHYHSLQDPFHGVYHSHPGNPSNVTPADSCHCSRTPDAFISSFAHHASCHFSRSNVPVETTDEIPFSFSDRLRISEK

Regarding `O=C(Nc1cnc(-n2nccn2)c(Cl)c1)c1cnn(-c2cnc([C@H]3CCCO3)c3ccccc23)c1C(F)(F)F` (single isomer, unassigned) [Cpd 436, (*R)—N-(5-chloro-6-(2H-1,2,3-triazol-2-yl)pyridin-3-yl)-1-(1-(tetrahydrofuran-2-yl)isoquinolin-4-yl)-5-(trifluoromethyl)-1H-pyrazole-4-carboxamide], the half-maximal inhibitory concentration (IC50) worked out at 110 nM in assay [1], 1320 nM in assay [2] and 141 nM in assay [3].

For `O=C(Nc1cnc(-n2nccn2)c(Cl)c1)c1cnn(-c2cccc3nc([C@@H]4CCCO4)ccc23)c1C(F)(F)F` (single isomer, unassigned) [Cpd 441, (*S)—N-(5-chloro-6-(2H-1,2,3-triazol-2-yl)pyridin-3-yl)-1-(2-(tetrahydrofuran-2-yl)quinolin-5-yl)-5-(trifluoromethyl)-1H-pyrazole-4-carboxamide], the values for the IC50 in assay [1], in assay [2] and in assay [3] were 891 nM, 977 nM and 1120 nM, respectively.

For `O=C(Nc1cnc(-n2nc3cccnc3n2)c(Cl)c1)c1cnn(-c2cccc3ncccc23)c1C(F)(F)F` [Cpd 164, N-(6-(2H-[1,2,3]triazolo[4,5-b]pyridin-2-yl)-5-chloropyridin-3-yl)-1-(quinolin-5-yl)-5-(trifluoromethyl)-1H-pyrazole-4-carboxamide], the values for the IC50 in assay [2] and in assay [3] were 282 nM and 1660 nM, respectively.

As for `Cc1cn2c(-n3ncc(C(=O)Nc4cnc(-n5nccn5)c(Cl)c4)c3C(F)(F)F)cccc2n1` [Cpd 199, N-(5-chloro-6-(2H-1,2,3-triazol-2-yl)pyridin-3-yl)-1-(2-methylimidazo[1,2-a]pyridin-5-yl)-5-(trifluoromethyl)-1H-pyrazole-4-carboxamide], the IC50 in assay [2] came to 110 nM; in assay [3], 295 nM.

For `O=C(Nc1cnc(-n2nccn2)c(Cl)c1)c1cnn(-c2cc(C(F)F)nc3ccccc23)c1C(F)(F)F` [Cpd 401, N-(5-chloro-6-(2H-1,2,3-triazol-2-yl)pyridin-3-yl)-1-(2-(difluoromethyl)quinolin-4-yl)-5-(trifluoromethyl)-1H-pyrazole-4-carboxamide], the IC50 was 132 nM in assay [4] (Homo sapiens, TMD8); 331 nM in assay [5] (Homo sapiens, TMD8); 56 nM in assay [2].

With `CC(F)(F)c1ncc(-n2ncc(C(=O)Nc3cnc(-n4nccn4)c(Cl)c3)c2C(F)(F)F)c2ccccc12` [Cpd 402, N-(5-chloro-6-(2H-1,2,3-triazol-2-yl)pyridin-3-yl)-1-(1-(1,1-difluoroethyl)isoquinolin-4-yl)-5-(trifluoromethyl)-1H-pyrazole-4-carboxamide], the IC50 in assay [4] (Homo sapiens, TMD8) amounted to 85 nM; in assay [5] (Homo sapiens, TMD8), 200 nM; in assay [2], 178 nM.

Regarding `O=C(Nc1cnc(-n2nccn2)c(Cl)c1)c1cnn(-c2cnc(C3CNC3)c3ccccc23)c1C(F)(F)F` [Cpd 403, 1-(1-(azetidin-3-yl)isoquinolin-4-yl)-N-(5-chloro-6-(2H-1,2,3-triazol-2-yl)pyridin-3-yl)-5-(trifluoromethyl)-1H-pyrazole-4-carboxamide], the IC50 in assay [4] (Homo sapiens, TMD8) was 112 nM; in assay [5] (Homo sapiens, TMD8), 105 nM; in assay [2] it was 871 nM.

With `COCc1ncc(-n2ncc(C(=O)Nc3cnc(-n4nccn4)c(Cl)c3)c2C(F)(F)F)c2ccccc12` [Cpd 404, N-(5-chloro-6-(2H-1,2,3-triazol-2-yl)pyridin-3-yl)-1-(1-(methoxymethyl)isoquinolin-4-yl)-5-(trifluoromethyl)-1H-pyrazole-4-carboxamide], the IC50 in assay [4] (Homo sapiens, TMD8) is 2630 nM; in assay [5] (Homo sapiens, TMD8), 912 nM; in assay [2], 91 nM.

Turning to `O=C(Nc1cnc(-n2nccn2)c(Cl)c1)c1cnn(-c2c[n+]([O-])cc3ccccc23)c1C(F)(F)F` [Cpd 406, 4-(4-((5-chloro-6-(2H-1,2,3-triazol-2-yl)pyridin-3-yl)carbamoyl)-5-(trifluoromethyl)-1H-pyrazol-1-yl)isoquinoline 2-oxide], the IC50 in assay [4] (Homo sapiens, TMD8) worked out at 200 nM; in assay [5] (Homo sapiens, TMD8) it was 224 nM; in assay [2] it was 76 nM.

`N#Cc1ccc2c(-n3ncc(C(=O)Nc4cnc(-n5nccn5)c(Cl)c4)c3C(F)(F)F)cccc2n1` [Cpd 413, N-(5-chloro-6-(2H-1,2,3-triazol-2-yl)pyridin-3-yl)-1-(2-cyanoquinolin-5-yl)-5-(trifluoromethyl)-1H-pyrazole-4-carboxamide]: the IC50 is 380 nM in assay [4] (Homo sapiens, TMD8); more than 1510 nM in assay [5] (Homo sapiens, TMD8); 288 nM in assay [2].

With `N#Cc1ncc(-n2ncc(C(=O)Nc3cnc(-n4nccn4)c(Cl)c3)c2C(F)(F)F)c2ccccc12` [Cpd 414, N-(5-chloro-6-(2H-1,2,3-triazol-2-yl)pyridin-3-yl)-1-(1-cyanoisoquinolin-4-yl)-5-(trifluoromethyl)-1H-pyrazole-4-carboxamide], the IC50 in assay [4] (Homo sapiens, TMD8) is 955 nM; in assay [5] (Homo sapiens, TMD8) it was more than 15100 nM; in assay [2], 19 nM.

Regarding `N#Cc1ncc(-n2ncc(C(=O)Nc3cnc(-n4nccn4)c(Cl)c3)c2C(F)(F)F)c2ccsc12` [Cpd 415, N-(5-chloro-6-(2H-1,2,3-triazol-2-yl)pyridin-3-yl)-1-(7-cyanothieno[2,3-c]pyridin-4-yl)-5-(trifluoromethyl)-1H-pyrazole-4-carboxamide], the IC50 is 93 nM in assay [4] (Homo sapiens, TMD8); 95 nM in assay [5] (Homo sapiens, TMD8); 54 nM in assay [2].

As to `Cc1nc(-n2nccn2)c(Cl)cc1NC(=O)c1cnn(-c2cnc(C#N)c3sccc23)c1C(F)(F)F` [Cpd 416, N-(5-chloro-2-methyl-6-(2H-1,2,3-triazol-2-yl)pyridin-3-yl)-1-(7-cyanothieno[2,3-c]pyridin-4-yl)-5-(trifluoromethyl)-1H-pyrazole-4-carboxamide], the IC50 in assay [4] (Homo sapiens, TMD8) was more than 15100 nM; in assay [5] (Homo sapiens, TMD8) it was more than 15100 nM; in assay [2] it was 2570 nM.

With `Cc1nc(-n2nccn2)c(Cl)cc1NC(=O)c1cnn(-c2cnc(Cl)c3sccc23)c1C(F)(F)F` [Cpd 426, N-(5-chloro-2-methyl-6-(2H-1,2,3-triazol-2-yl)pyridin-3-yl)-1-(7-chlorothieno[2,3-c]pyridin-4-yl)-5-(trifluoromethyl)-1H-pyrazole-4-carboxamide], the IC50 in assay [4] (Homo sapiens, TMD8) was determined as 60 nM; in assay [5] (Homo sapiens, TMD8), 91 nM; in assay [2], 13 nM.

On to `COc1ncc(NC(=O)c2cnn(-c3cccc4c(=O)[nH]ccc34)c2C(F)(F)F)cc1C#N` [Cpd 428, N-(5-cyano-6-methoxypyridin-3-yl)-1-(1-oxo-1,2-dihydroisoquinolin-5-yl)-5-(trifluoromethyl)-1H-pyrazole-4-carboxamide], for which the IC50 was determined as 240 nM in assay [4] (Homo sapiens, TMD8); 550 nM in assay [5] (Homo sapiens, TMD8); 11 nM in assay [2].

`O=C(Nc1cnc(-n2nccn2)c(Cl)c1)c1cnn(-c2cnc(N3CC(O)C3)c3sccc23)c1C(F)(F)F` [Cpd 430, N-(5-chloro-6-(2H-1,2,3-triazol-2-yl)pyridin-3-yl)-1-(7-(3-hydroxyazetidin-1-yl)thieno[2,3-c]pyridin-4-yl)-5-(trifluoromethyl)-1H-pyrazole-4-carboxamide]: the IC50 was 204 nM in assay [4] (Homo sapiens, TMD8); more than 3020 nM in assay [5] (Homo sapiens, TMD8); 13 nM in assay [2].

For `O=C(Nc1cnc(-n2nccn2)c(Cl)c1)c1cnn(-c2cnc(N3CC[C@@H](O)C3)c3sccc23)c1C(F)(F)F` [Cpd 432, (R)—N-(5-chloro-6-(2H-1,2,3-triazol-2-yl)pyridin-3-yl)-1-(7-(3-hydroxypyrrolidin-1-yl)thieno[2,3-c]pyridin-4-yl)-5-(trifluoromethyl)-1H-pyrazole-4-carboxamide], the IC50 turned out to be 363 nM in assay [4] (Homo sapiens, TMD8); 933 nM in assay [5] (Homo sapiens, TMD8); 98 nM in assay [2].

For “N-(5-chloro-6-(4-methyl-2H-1,2,3-triazol-2-yl)pyridin-3-yl)-1-(quinolin-5-yl)-5-(trifluoromethyl)-1H-pyrazole-4-carboxamide [Cpd 304]”, the IC50 came out at 3240 nM in assay [4], 3310 nM in assay [5] and 62 nM in assay [2].

By IC50 is commonly meant the concentration at which inhibition is half-maximal.
